One assay concerns NCI-H460dnp53 cell line. In words: MTS colorimetric cell viability assay, CHK-ATM combination, NCI-H460dnp53.
In another assay the test system is SW620 cell line. In words: MTS colorimetric cell viability assay, CHK-ATM combination, SW620. The following applies: for IC50: Homo sapiens.

Where two headings read alike, the source gives them in different places.

For orientation: IC50 means the concentration that gives 50% inhibition. Consider `CC1CN(CC(=O)Nc2ccc3c(c2)Cc2cccc(-c4cc(=O)cc(N5CCOCC5)o4)c2S3)CC(C)O1` (stereo not shown) [ATM inhibitor, 2-[(2,6)-2,6-dimethylmorpholin-4-yl]-N-[5-(6-morpholin-4-yl-4-oxo-4H-pyran-2-yl)-9H-thioxanthen-2-yl]acetamide], for which the IC50 is 1.7 µM in the assay on NCI-H460dnp53 cell line (96 h, read-out: IC50 of ATM inhibitor, ATM inhibitor + CHK inhibitor Simultaneous); greater than 30 µM in the assay with NCI-H460dnp53 cell line (read-out: IC50 of ATM inhibitor alone); 3.8 µM with NCI-H460dnp53 cell line (read-out: IC50 of ATM inhibitor, ATM inhibitor followed by CHK inhibitor); 4.4 µM in the assay with NCI-H460dnp53 cell line (read-out: IC50 of ATM inhibitor, CHK inhibitor followed by ATM inhibitor); 1.9 µM in the assay with SW620 cell line (SW-620, 96 h, read-out: IC50 of ATM inhibitor, ATM inhibitor + CHK inhibitor Simultaneous); 7 µM in the assay on SW620 cell line (SW-620, read-out: IC50 of ATM inhibitor alone). The IC50 in the assay on SW620 cell line (SW-620, read-out: IC50 of ATM inhibitor, ATM inhibitor followed by CHK inhibitor) came to 3.4 µM; in the assay with SW620 cell line (SW-620, read-out: IC50 of ATM inhibitor, CHK inhibitor followed by ATM inhibitor), 6 µM.
Regarding `NC(=O)Nc1cc(-c2cccc(F)c2)sc1C(=O)N[C@H]1CCCNC1` [CHK inhibitor, 5-(3-Fluoro-phenyl)-3-ureido-thiophene-2-carboxylic acid (S)-piperidin-3-ylamide], the “activity of CHK inhibitor as a single agent at the constant concentration used” value was “no activity” with NCI-H460dnp53 cell line (NCI-H460dnp53, 0.33 uM, single agent, previously determined) and “no activity” with SW620 cell line (SW620, 0.28 uM, single agent, previously determined).
